Consider eleven compounds from patent US11065249B2, “Diacylglycerol acyl transferase 2 inhibitor” (Pfizer Inc., priority 2019, dated 2021).

Converted amounts (≈) assume the structure as drawn. Structures can show the parent of a compound that is named as a salt.

As a reminder, the microsomal CLint is a measure of how fast metabolising enzymes remove a compound, apart from limits set by blood flow. Usually IC50 stands for the concentration that inhibits the measured activity by half. Read a low IC50 as greater potency. In general, hepatocyte CLint refers to the rate of metabolic loss divided by the concentration. The low end stands for greater metabolic stability, the high end for faster metabolism. The pKa is the pH at which an ionisable group is half protonated. The low end stands for a stronger acid or weaker base, the high end for a weaker acid or stronger base. As a reminder, the Solubility is the dissolved amount per volume that the medium holds. Lower therefore signals little dissolved substance.

Data set [1] in a line: Intrinsic clearance in human liver microsomes. Type of data set: in vitro ADME. Particulars: 1 μM test compound, mean +/− STD Dev; for microsomal CLint at 1 μM: human, pooled human liver microsomes, pH 7.4, human liver microsome assay; for CLint (+/−STD Dev): human liver microsome assay. As to the method: The incubations were conducted at 37° C. […] (Sorvall R C 3C Plus, Thermo Scientific, Waltham, Mass.).
On the technique in general: Liver microsomes are vesicles of endoplasmic reticulum, rich in cytochrome P450 enzymes.

The target of data set [2] is human DGAT2 (hDGAT2) (Homo sapiens (Human), UniProt Q96PD7). The data set can be described thus: In vitro DGAT2 assay, determination of IC50 values for DGAT2 inhibitors. Type of data set: biochemical. To be noted: inhibition of DGAT2, hDGAT2 membrane fractions; geometric mean. Here is the method: Recombinant baculovirus for the FLAG-tagged hDGAT2 was generated in SF9 insect cells using Bac-to-Bac baculovirus expression system (Invitrogen) according to the manufacturer's protocol. For the expression of hDGAT2, SF9 cells (20 L) grown in Sf900II media were infected with hDGAT2 baculovirus at a multiplicity of infection of 1 in a Wave Bioreactor System 20/50P wave bag (GE Healthcare). After 40 hours of infection, the cells were then harvested by centrifugation at 5,000×g. The cell pellets were washed by resuspending in phosphate buffered saline (PBS) and collected by centrifugation at 5,000×g. The cell paste was flash frozen in liquid N2 and stored at −80° C. until needed. All operations below were at 4° C. unless otherwise noted. The cells were resuspended in lysis buffer (50 mM Tris-HCl, pH 8.0, 250 mM sucrose) including 1 mM ethylenediaminetetraacetic acid (EDTA) and the complete protease inhibitor cocktail (Roche Diagnostics) at a ratio of 3 mL buffer per 1 g cell paste. The cells were lysed by dounce homogenizer. The cell debris was removed by centrifugation at 1,000×g for 20 min, and the supernatant was centrifuged at 100,000×g for 1 hour. The resulting pellet was rinsed three times by filling ultracentrifuge tubes to the top with ice cold PBS before decanting. The washed pellet was resuspended with gentle stirring for 1 hour in lysis buffer containing 8 mM 3-[(3-cholamidopropyl)dimethylammonio]-1-propanesulfonate (CHAPS) at a ratio of 1 mL buffer per 1 g of original cell paste and centrifuged again at 100,000×g for 1 hour. The resulting supernatant was aliquotted, flash frozen in liquid N2, and stored at −80° C. until use.
Chain of human DGAT2 (hDGAT2) (Q96PD7 whole entry): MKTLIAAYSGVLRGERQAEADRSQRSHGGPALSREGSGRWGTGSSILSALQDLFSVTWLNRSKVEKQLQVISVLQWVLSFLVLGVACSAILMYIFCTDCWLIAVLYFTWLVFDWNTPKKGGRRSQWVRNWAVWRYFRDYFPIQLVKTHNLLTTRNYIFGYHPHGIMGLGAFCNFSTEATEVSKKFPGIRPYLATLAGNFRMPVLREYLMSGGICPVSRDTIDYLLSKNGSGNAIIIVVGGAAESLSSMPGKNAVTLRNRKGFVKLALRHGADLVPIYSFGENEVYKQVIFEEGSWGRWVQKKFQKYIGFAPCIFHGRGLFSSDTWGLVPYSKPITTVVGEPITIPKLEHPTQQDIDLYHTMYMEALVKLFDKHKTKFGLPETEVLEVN
To 1 μL of compounds dissolved in 100% DMSO and spotted at the bottom of each well, 5 μL of 0.04% bovine serum albumin (BSA) (fatty acid free, Sigma Aldrich) was added and the mixture was incubated at room temperature for 15 minutes. hDGAT2 membrane fractions were diluted in 100 mM Hepes-NaOH, pH 7.4, 20 mM MgCl2 containing 200 nM methyl arachidonyl fluorophosphonate (Cayman Chemical, dried from ethyl acetate stock solution under argon gas and dissolved in DMSO as 5 mM stock). 10 μL of this enzyme working solution was added to the plates and incubation continued for 2 hours at room temperature. DGAT2 reactions were initiated by the addition of 4 μL of substrates containing 30 μM [1-^14C]decanoyl-CoA (custom-synthesized by Perkin Elmer, 50 mCi/mmol) and 125 μM 1,2-didecanoyl-sn-glycerol (Avanti Polar Lipids) dissolved in 12.5% acetone. The reaction mixtures were incubated at room temperature for 40 min and the reactions were stopped by addition of 5 μL of 1% H3PO4. After the addition of 45 μL MicroScint-E (Perkin-Elmer), plates were sealed with Top Seal-A covers (Perkin-Elmer) and phase partitioning of substrates and products was achieved using a HT-91100 microplate orbital shaker (Big Bear Automation, Santa Clara, Calif.). Plates were centrifuged at 2,000×g for 1 minute in an Allegra 6R Centrifuge (Beckman Coulter) and then were sealed again with fresh covers before reading in a 1450 Microbeta Wallac Trilux Scintillation Counter (Perkin Elmer). DGAT2 activity was measured by quantifying the generated product [^14C]tridecanoylglycerol in the upper organic phase.
Inhibitors were tested at eleven different concentrations to generate IC50 values for each compound.

Data set [3] is described as follows: High throughput determination of intrinsic clearance in human hepatocytes. Type of data set: in vitro ADME. To be noted: human, pooled cryopreserved human hepatocytes (suspension), high throughput human hepatocyte assay, 1 μM test compound; mean +/− Std Dev. As to the method:
(§1) The incubation was carried out at 37° C. […] The samples were centrifuged (Eppendorf, Hauppauge, N.Y.) at 3000 rpm for 5 min at 4° C.

Data set [4] in a line: Determination of pKa (capillary electrophoresis, Analiza). It is filed as physicochemical. Particulars: most basic pKa, mean.
In data set [5] the test system is human hepatocytes. The data set is described as follows: High throughput determination of intrinsic clearance in human hepatocytes. To be noted: high throughput human hepatocyte assay, 1 μM test compound; mean +/− Std Dev. Type of data set: in vitro ADME. Here is the method:
as §1

The nature of data set [6]: Thermodynamic solubility in various biorelevant media (PBS, SGN, FaSSIF, FeSSIF). Type of data set: physicochemical. Here is the method: The solubility of active pharmaceutical ingredients is an important characteristic in determining biological performance and ease of formulation during drug development, with high solubility being preferred (Klein, S. 2010, The AAPS Journal, 12, 397-406; Di, L., et al 2012, Drug Disc. Today, 17.486-495). A test sample of crystalline solid (˜7 mg) was combined in a vial with 1 mL of the relevant buffer solution and the mixture vortexed to combine. If the solid dissolved completely, additional solid was added with vortexing until a saturated solution was obtained. The saturated solution/solid mixture was capped and subjected to temperature cycling as follows: 1 min at 25° C.; 8 h at 40° C.; 5 h at 15° C. and 12 h at 25° C. The mixture was filtered in a centrifugal filtration device (0.22 μm PVDF filter, MilliporeSigma, Milwaukee, Wis.) at 13,000 rpm and the concentration of the test compound in the filtrate was determined by HPLC/UPLC with reference to a three point standard curve. Phosphate buffered saline (PBS, pH 6.8, 50 mM phosphate buffer, 250 mM NaCl). Simulated gastric fluid (SGN pH 1.2, USP recipe). Fasted state simulated intestinal fluid (FaSSIF, 3 mM sodium taurocholate, 0.75 mM phospholipid from soybean lecithin, 50 mM phosphate buffer, ionic strength adjusted to 250 mM with NaCl, pH 6.8) and fed state simulated intestinal fluid (FeSSIF, 15 mM sodium taurocholate, 3.75 mM phospholipid from soybean lecithin, 144 mM acetic acid, 50 mM phosphate buffer, ionic strength adjusted to 250 mM with NaCl, pH 6.8).

`CCOc1cccnc1Oc1cncc(-c2ncc(C(=O)N[C@H]3CC[C@H](C(F)(F)F)NC3)cn2)c1` (racemic) [Example 9, rac-2-{5-[(3-ethoxypyridin-2-yl)oxy]pyridin-3-yl}-N-[(3R,6S)-6-(trifluoromethyl)piperidin-3-yl]pyrimidine-5-carboxamide or rac-2-{5-[(3-ethoxypyridin-2-yl)oxy]pyridin-3-yl}-N-[(3R,6R)-6-(trifluoromethyl)piperidin-3-yl]pyrimidine-5-carboxamide] registered an intrinsic clearance (microsomal CLint) at 1 μM in data set [1] of over 290 µL/min/mg. Besides, the IC50 in data set [2] amounted to 19 nM. Also, the hepatocyte CLint at 1 μM in data set [3] came out at 54 µL/min/1e6 cells. Moreover, the pKa in data set [4] turned out to be 4.

Consider `CCOc1cccnc1Oc1cncc(-c2ncc(C(=O)N[C@@H]3CNCC(F)(F)C3)cn2)c1` (single isomer, unassigned) [Example 19, N-[(3S)-5,5-difluoropiperidin-3-yl]-2-{5-[(3-ethoxypyridin-2-yl)oxy]pyridin-3-yl}pyrimidine-5-carboxamide or N-[(3R)-5,5-difluoropiperidin-3-yl]-2-{5-[(3-ethoxypyridin-2-yl)oxy]pyridin-3-yl}pyrimidine-5-carboxamide], for which the “CLint (+/−STD Dev)” value in data set [1] came to 34 ± 1.9 µL/min/mg. Besides, in data set [2], inhibition was half-maximal at 240 nM (IC50). Besides, in data set [4], the “Basic pKa” value came out at 5.2.

As for `CCOc1cccnc1Oc1cncc(-c2ncc(C(=O)NC3CCC(C(F)(F)F)NC3)cn2)c1` (single isomer, unassigned; ent-1) [Example 10, 2-{5-[(3-ethoxypyridin-2-yl)oxy]pyridin-3-yl}-N-[6-(trifluoromethyl)piperidin-3-yl]pyrimidine-5-carboxamide, trifluoroacetate salt, ENT-1], the microsomal CLint at 1 μM in data set [1] is 270 µL/min/mg. For the same compound, in data set [2], it took 39 nM to reach half-maximal inhibition (IC50). The hepatocyte CLint at 1 μM in data set [3] worked out at 27 µL/min/1e6 cells. Besides, the “Basic pKa” value in data set [4] turned out to be 4.7.

Regarding `CCOc1cccnc1Oc1cncc(-c2ncc(C(=O)NC3CCC(C(F)(F)F)NC3)cn2)c1` (single isomer, unassigned; ent-2) [Example 11, 2-{5-[(3-ethoxypyridin-2-yl)oxy]pyridin-3-yl}-N-[6-(trifluoromethyl)piperidin-3-yl]pyrimidine-5-carboxamide, trifluoroacetate salt, ENT-2], the “CLint (+/−STD Dev)” value in data set [1] is over 290 µL/min/mg. Moreover, in data set [2], the IC50 was determined as 4.4 nM. In data set [4], this compound returned a pKa of 4.5.

For the compound `CCOc1cc(F)cnc1Oc1cncc(-c2ncc(C(=O)N[C@@H]3CNCC[C@@H]3F)cn2)c1` [Example 1, 2-{5-[(3-Ethoxy-5-fluoropyridin-2-yl)oxy]pyridin-3-yl}-N-[(3R,4S)-4-fluoropiperidin-3-yl]pyrimidine-5-carboxamide, bis(trifluoroacetate) salt], the “CLint (+/−STD Dev)” value in data set [1] was under 7 µL/min/mg. In addition, the IC50 in data set [2] came out at 5.8 nM. In addition, the “CLint (+/−Std Dev)” value in data set [5] was <2.7 +/− 0.72 μL/min/10^6 cells. Further, the “Basic pKa” value in data set [4] amounted to 7.7.

For the compound `CCOc1cccnc1Oc1cncc(-c2ncc(C(=O)N[C@@H]3CNCC[C@@H]3F)cn2)c1` [Example 3, 2-{5-[(3-Ethoxypyridin-2-yl)oxy]pyridin-3-yl}-N-[(3R,4S)-4-fluoropiperidin-3-yl]pyrimidine-5-carboxamide, bis(trifluoroacetate) salt], the “CLint (+/−STD Dev)” value in data set [1] was under 7 µL/min/mg. Also, the “CLint (+/−Std Dev)” value in data set [5] is reported as <1.9 +/− 0.35 μL/min/10^6 cells. For the same compound, the “Basic pKa” value in data set [4] is given as 8.1.

Regarding `CCOc1cccnc1Oc1cncc(-c2ncc(C(=O)N[C@H]3CCOC3)cn2)c1` [WO2018033832 Ex. 1, Form 1], the Solubility is 69 µg/mL (≈ 169 µM) in data set [6] (FaSSIF pH 6.8); 43 µg/mL (≈ 106 µM) in data set [6] (PBS, pH 6.8); 78 µg/mL (≈ 191 µM) in data set [6] (SGN pH 1.2).

For `CCOc1cccnc1Oc1cncc(-c2ncc(C(=O)N[C@H]3CCOC3)cn2)c1` [WO2018033832 Ex. 1, Form 2], the Solubility in data set [6] (FaSSIF pH 6.8) is 93 µg/mL (≈ 228 µM); in data set [6] (PBS, pH 6.8), 60 µg/mL (≈ 147 µM); in data set [6] (SGN pH 1.2), 1082 µg/mL (≈ 2660 µM).

In the case of `CCOc1cccnc1Oc1cncc(-c2ncc(C(=O)NC3(C)CCS(=O)(=O)C3)cn2)c1` (stereo not drawn) [WO2018033832 Ex. 3.1], the “CLint (+/−STD Dev)” value in data set [1] stood at 30 µL/min/mg. In data set [5], the “CLint (+/−Std Dev)” value is reported as 9.3 +/− 1.1 μL/min/10^6 cells.

Consider `CCOc1cccnc1Oc1cncc(-c2ncc(C(=O)NC3CCS(=O)(=O)C3)cn2)c1` (stereo not drawn) [WO2018033832 Ex. 3.3], for which the “CLint (+/−STD Dev)” value in data set [1] is under 8 µL/min/mg. In addition, the “CLint (+/−Std Dev)” value in data set [5] was 5.1 +/− 0.69 μL/min/10^6 cells.

On to `CCOc1cc(F)cnc1Oc1cncc(-c2ncc(C(=O)N[C@H]3CCOC3)cn2)c1` [WO2018033832 Ex. 8], for which the “CLint (+/−STD Dev)” value in data set [1] is under 9.6 µL/min/mg. Moreover, the “CLint (+/−Std Dev)” value in data set [5] was 9.3 +/− 0.52 μL/min/10^6 cells.
